# Experimental data from PubChem BioAssay (NCI).
#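 Compound exposure: 48 hours, 5 concentrations, 96-well plates. GI50 = concentration required for 50% inhibition of growth. Definition used: TGI = concentration required for complete inhibition of growth.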
# Columns and labels:
# Assay in all cases: NCI anticancer screen, dose series, 48 h
# [1] = system: MDA-MB-231 breast
# [2] = system: OVCAR-4 ovarian
# [3] = system: 786-0 renal
# [4] = system: NCI-H522 lung
# [5] = system: SN12C renal
# [6] = system: MALME-3M melanoma
# [7] = system: NCI-H226 lung
# [8] = system: UACC-62 melanoma
# [9] = system: PC-3 prostate
# [10] = system: HT29 colon
# [11] = system: SF-268 CNS
# [12] = system: OVCAR-3 ovarian
# [13] = system: NCI/ADR-RES ovarian
# [14] = system: SK-MEL-5 melanoma
# [15] = system: SNB-19 CNS
# [16] = system: A549 NSCLC
# [17] = system: EKVX NSCLC
# [18] = system: SK-MEL-28 melanoma
# [19] = system: HCT-116 colon
# [20] = system: OVCAR-8 ovarian
# [21] = system: SK-OV-3 ovarian
# [22] = system: RPMI-8226 leukemia
# [23] = system: KM12 colon
# [24] = system: MCF7 breast
# [25] = system: SR leukemia
# [26] = system: SW-620 colon
# [27] = system: SNB-75 CNS
# [28] = system: UACC-257 melanoma
# [29] = system: HCC-2998 colon
# [30] = system: HCT-15 colon
# [31] = system: UO-31 renal
# [32] = system: SK-MEL-2 melanoma
# [33] = system: A498 renal
# [34] = system: CAKI-1 renal
# [35] = system: CCRF-CEM leukemia
# [36] = system: HOP-92 NSCLC
# [37] = system: M14 melanoma
# [38] = system: K-562 leukemia
# [39] = system: COLO 205 colon
# [40] = system: T-47D breast
# [41] = system: SF-295 CNS
# [42] = system: BT-549 breast
# [43] = system: MDA-MB-435
# [44] = system: NCI-H460 lung
# [45] = system: HS 578T breast
# [46] = system: MOLT-4 leukemia
# [47] = system: ACHN renal
# [48] = system: TK-10 renal
# [49] = system: LOX IMVI melanoma
# [50] = system: NCI-H23 lung
# [51] = system: HL-60(TB) leukemia
# [52] = system: U251 CNS
# [53] = system: SF-539 CNS
# [54] = system: HOP-62 NSCLC
# [55] = system: OVCAR-5 ovarian
# [56] = system: DU-145 prostate
# [57] = system: IGROV1 ovarian
# [58] = system: RXF 393 renal
smiles,measurement,setting,value
O=C(CCCCCCNC(=O)C(O)(O)C(F)(F)F)Nc1ccc(Cl)cc1,GI50,[1],5200 nM
same,TGI,[1],27300 nM
same,GI50,[2],15700 nM
same,TGI,[2],> 36800 nM
same,GI50,[3],9480 nM
same,TGI,[3],> 36800 nM
same,GI50,[4],4680 nM
same,TGI,[4],19800 nM
same,GI50,[5],7660 nM
same,TGI,[5],35600 nM
same,GI50,[6],2830 nM
same,TGI,[6],22000 nM
same,GI50,[7],9490 nM
same,TGI,[7],> 36800 nM
same,GI50,[8],3190 nM
same,TGI,[8],9280 nM
same,GI50,[9],5010 nM
same,TGI,[9],> 36800 nM
same,GI50,[10],6280 nM
same,TGI,[10],> 36800 nM
same,GI50,[11],7270 nM
same,TGI,[11],24500 nM
same,GI50,[12],3830 nM
same,TGI,[12],10100 nM
same,GI50,[13],6160 nM
same,TGI,[13],28700 nM
same,GI50,[14],5070 nM
same,TGI,[14],10000 nM
same,GI50,[15],7560 nM
same,TGI,[15],30900 nM
same,GI50,[16],9560 nM
same,TGI,[16],> 36800 nM
same,GI50,[17],11200 nM
same,TGI,[17],> 36800 nM
same,GI50,[18],5400 nM
same,TGI,[18],34300 nM
same,GI50,[19],1590 nM
same,TGI,[19],> 36800 nM
same,GI50,[20],3500 nM
same,TGI,[20],> 36800 nM
same,GI50,[21],5560 nM
same,TGI,[21],26000 nM
same,GI50,[22],3460 nM
same,TGI,[22],> 36800 nM
same,GI50,[23],7920 nM
same,TGI,[23],> 36800 nM
same,GI50,[24],10800 nM
same,TGI,[24],> 36800 nM
same,GI50,[25],2440 nM
same,TGI,[25],> 36800 nM
same,GI50,[26],4020 nM
same,TGI,[26],16300 nM
same,GI50,[27],8760 nM
same,TGI,[27],> 36800 nM
same,GI50,[28],7850 nM
same,TGI,[28],> 36800 nM
same,GI50,[29],7620 nM
same,TGI,[29],22000 nM
same,GI50,[30],8180 nM
same,TGI,[30],> 36800 nM
same,GI50,[31],5250 nM
same,TGI,[31],23700 nM
same,GI50,[32],5410 nM
same,TGI,[32],17600 nM
same,GI50,[33],1380 nM
same,TGI,[33],12500 nM
same,GI50,[34],8980 nM
same,TGI,[34],> 36800 nM
same,GI50,[35],2730 nM
same,TGI,[35],> 36800 nM
same,GI50,[36],1060 nM
same,TGI,[36],8390 nM
same,GI50,[37],9990 nM
same,TGI,[37],> 36800 nM
same,GI50,[38],1820 nM
same,TGI,[38],> 36800 nM
same,GI50,[39],5830 nM
same,TGI,[39],15100 nM
same,GI50,[40],5760 nM
same,TGI,[40],> 36800 nM
same,GI50,[41],5770 nM
same,TGI,[41],13100 nM
same,GI50,[42],6720 nM
same,TGI,[42],35000 nM
same,GI50,[43],7130 nM
same,TGI,[43],> 36800 nM
same,GI50,[44],4590 nM
same,TGI,[44],> 36800 nM
same,GI50,[45],3680 nM
same,TGI,[45],30100 nM
same,GI50,[46],2870 nM
same,TGI,[46],> 36800 nM
same,GI50,[47],6010 nM
same,TGI,[47],28200 nM
same,GI50,[48],1550 nM
same,TGI,[48],> 36800 nM
same,GI50,[49],4070 nM
same,TGI,[49],8940 nM
same,GI50,[50],7080 nM
same,TGI,[50],34200 nM
same,GI50,[51],3640 nM
same,TGI,[51],> 36800 nM
same,GI50,[52],4910 nM
same,TGI,[52],21000 nM
same,GI50,[53],8850 nM
same,TGI,[53],> 36800 nM
same,GI50,[54],7750 nM
same,TGI,[54],> 36800 nM
same,GI50,[55],4260 nM
same,TGI,[55],20900 nM
same,GI50,[56],8130 nM
same,TGI,[56],> 36800 nM
same,GI50,[57],5110 nM
same,TGI,[57],19800 nM
C#Cc1nc(/C=C/C(=O)c2nccn2C)cs1,GI50,[1],708 nM
same,TGI,[1],1500 nM
same,GI50,[2],1000 nM
same,TGI,[2],2340 nM
same,GI50,[3],262 nM
same,TGI,[3],623 nM
same,GI50,[4],566 nM
same,TGI,[4],1370 nM
same,GI50,[5],797 nM
same,TGI,[5],1700 nM
same,GI50,[6],893 nM
same,TGI,[6],1830 nM
same,GI50,[7],1490 nM
same,TGI,[7],9130 nM
same,GI50,[8],715 nM
same,TGI,[8],1460 nM
same,GI50,[9],778 nM
same,TGI,[9],1690 nM
same,GI50,[10],837 nM
same,TGI,[10],1700 nM
same,GI50,[11],813 nM
same,TGI,[11],1830 nM
same,GI50,[13],723 nM
same,TGI,[13],2700 nM
same,GI50,[14],1040 nM
same,TGI,[14],2320 nM
same,GI50,[15],812 nM
same,TGI,[15],1550 nM
same,GI50,[16],1110 nM
same,TGI,[16],3060 nM
same,GI50,[17],964 nM
same,TGI,[17],1960 nM
same,GI50,[18],915 nM
same,TGI,[18],2040 nM
same,GI50,[19],456 nM
same,TGI,[19],1220 nM
same,GI50,[20],1160 nM
same,TGI,[20],4360 nM
same,GI50,[21],1180 nM
same,TGI,[21],2440 nM
same,GI50,[22],205 nM
same,TGI,[22],894 nM
same,GI50,[23],498 nM
same,TGI,[23],1200 nM
same,GI50,[24],537 nM
same,TGI,[24],1940 nM
same,GI50,[25],125 nM
same,TGI,[25],471 nM
same,GI50,[26],607 nM
same,TGI,[26],1400 nM
same,GI50,[27],668 nM
same,TGI,[27],1360 nM
same,GI50,[28],732 nM
same,TGI,[28],1610 nM
same,GI50,[29],880 nM
same,TGI,[29],1620 nM
same,GI50,[30],510 nM
same,TGI,[30],1310 nM
same,GI50,[31],132 nM
same,TGI,[31],355 nM
same,GI50,[32],909 nM
same,TGI,[32],2060 nM
same,GI50,[33],780 nM
same,TGI,[33],1520 nM
same,GI50,[34],735 nM
same,TGI,[34],1480 nM
same,GI50,[35],149 nM
same,TGI,[35],566 nM
same,GI50,[36],1050 nM
same,TGI,[36],1880 nM
same,GI50,[37],845 nM
same,TGI,[37],1980 nM
same,GI50,[38],377 nM
same,TGI,[38],2260 nM
same,GI50,[39],815 nM
same,TGI,[39],1730 nM
same,GI50,[40],229 nM
same,TGI,[40],1380 nM
same,GI50,[41],961 nM
same,TGI,[41],1870 nM
same,GI50,[42],815 nM
same,TGI,[42],1530 nM
same,GI50,[43],976 nM
same,TGI,[43],2820 nM
same,GI50,[44],898 nM
same,TGI,[44],2100 nM
same,GI50,[45],1040 nM
same,TGI,[45],3130 nM
same,GI50,[46],859 nM
same,TGI,[46],2500 nM
same,GI50,[58],502 nM
same,TGI,[58],1390 nM
same,GI50,[47],291 nM
same,TGI,[47],794 nM
same,GI50,[48],1170 nM
same,TGI,[48],2120 nM
same,GI50,[49],22.9 nM
same,TGI,[49],49.9 nM
same,GI50,[50],798 nM
same,TGI,[50],1720 nM
same,GI50,[51],167 nM
same,TGI,[51],645 nM
same,GI50,[52],775 nM
same,TGI,[52],1540 nM
same,GI50,[53],748 nM
same,TGI,[53],1470 nM
same,GI50,[54],1050 nM
same,TGI,[54],1960 nM
same,GI50,[55],859 nM
same,TGI,[55],1600 nM
same,GI50,[56],583 nM
same,TGI,[56],1280 nM
same,GI50,[57],105 nM
same,TGI,[57],215 nM
